Source: PubChem BioAssay (NCI)
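All cell lines were grown in 96-well plates and treated with compound for 48 hours. TGI is the concentration that stops growth completely.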

Experiments:
Test in all cases: NCI-60 cell line screen, 48 h
786-0 renal = test system: 786-0 renal
TK-10 renal = test system: TK-10 renal
HL-60(TB) leukemia = test system: HL-60(TB) leukemia
DU-145 prostate = test system: DU-145 prostate
SF-268 CNS = test system: SF-268 CNS
SK-MEL-2 melanoma = test system: SK-MEL-2 melanoma
KM12 colon = test system: KM12 colon
T-47D breast = test system: T-47D breast
A498 renal = test system: A498 renal
LXFL 529 NSCLC = test system: LXFL 529 NSCLC
DLD-1 colon = test system: DLD-1 colon
XF 498 CNS = test system: XF 498 CNS

Structure (SMILES)	TGI (786-0 renal) [µM]	TGI (TK-10 renal) [µM]	TGI (HL-60(TB) leukemia) [µM]	TGI (DU-145 prostate) [µM]	TGI (SF-268 CNS) [µM]	TGI (SK-MEL-2 melanoma) [µM]	TGI (KM12 colon) [µM]	TGI (T-47D breast) [µM]	TGI (A498 renal) [µM]	TGI (LXFL 529 NSCLC) [µM]	TGI (DLD-1 colon) [µM]	TGI (XF 498 CNS) [µM]
CC1(C)C2C=CC1(C)C1(CC2)OCCO1 (centres undefined)	> 100	> 100	> 100	> 100	> 100	> 100	> 100	> 100	> 100	–	–	–
CC1(C)CC(=O)c2c(nc3ccc4ccccc4c3c2-c2ccc(NC(=O)CCCCCCCCC(=O)Nc3ccc(-c4c5c(nc6ccc7ccccc7c46)CC(C)(C)CC5=O)cc3)cc2)C1	> 100	> 100	> 100	> 100	> 100	> 100	> 100	> 100	> 100	–	–	–
CC(=O)c1c(C(F)(F)F)n([O-])c2cc(Cl)c(Cl)cc2[n+]1=O	0.38	1.09	1.43	3.37	2.53	2.72	0.403	2.96	2.5	–	–	–
Cc1c2c(n(CCc3ccc(Cl)cc3)c1C)NC(c1ccccc1)C(C#N)S2(=O)=O (centres undefined)	> 100	> 100	> 100	> 100	> 100	> 68.9	> 100	> 100	> 100	–	–	–
CC1(C)[C@H]2CC[C@]1(C)[C@H](OC(=O)NNC(=O)O[C@@H]1C[C@@H]3CC[C@@]1(C)C3(C)C)C2	50.3	38.6	62.7	32.7	33.1	32.5	37.3	23	33.8	–	–	–
C[C@H]1C[C@H]2[C@@H]3C(C)(C)O[C@]4(O)C(=O)[C@]5(O)[C@@H](C)CC[C@H]1[C@]25C(=O)[C@]34C	> 100	–	59.2	> 100	> 100	84.3	99.7	70.9	87	–	–	–
C/C(Nc1ccc(F)cc1)=C1/CCOC1=O	> 100	> 100	> 100	> 100	> 100	–	> 100	> 100	> 100	–	–	–
S=C1SCN(Cc2ccco2)CN1c1ccc(Br)cc1	33	65.9	45.8	> 100	40.7	32	31.7	> 100	66.1	–	–	–
CN(C(=O)c1ccco1)C(=S)N1CCN(c2ccccc2)CC1	> 100	> 100	> 100	–	> 100	> 100	> 100	–	–	> 100	> 100	> 100
COc1ccccc1NC(=O)CC(=O)N1N=C(C)C(N=Nc2ccc(C(=O)O)cc2)C1=O (centres undefined)	> 100	> 100	> 100	> 100	> 100	> 100	> 100	> 100	> 100	–	–	–
O=C(c1cc(Cl)ccc1Cl)N1CCN(C(=O)c2cc(Cl)ccc2Cl)CC1	> 100	> 100	> 100	> 100	> 100	–	> 100	> 100	> 100	–	–	–
CCOC(=O)c1cc2c(C(=O)c3ccc([N+](=O)[O-])cc3)c(C(C)=O)ccc2[nH]1	> 100	> 100	> 100	> 100	38.9	> 100	> 100	> 100	> 100	–	–	–
COc1ccc(-n2c(=O)n(C)c(=O)n2-c2ccc(OC)cc2)cc1	> 100	> 100	> 100	> 100	> 100	> 100	> 100	> 100	> 100	–	–	–
COC(=O)[C@H]1CO[C@H]2C/C(C)=C/CC/C(C)=C/CC[C@@]3(C)O[C@@H]3C[C@H]21	> 50	> 50	26.2	> 50	> 50	> 50	18.4	> 50	> 50	–	–	–
CCCCCCCCCCCCCCCCCCNc1ccn(C2OC(COP(=O)(O)OCC3OC(n4cc(F)c(NCCCCCCCCCCCCCCCCCC)nc4=O)CC3O)C(O)C2O)c(=O)n1 (centres undefined)	> 100	> 100	> 100	> 100	> 100	> 100	> 100	> 100	> 100	–	–	–
CN1CCN(CCCBr)CC1	> 100	> 100	> 100	> 100	> 100	> 100	> 100	> 100	> 100	–	–	–
CCOC(=O)c1c(N2CCCC2)ncn(Cc2ccccc2)c1=S	> 100	> 100	> 100	> 100	> 100	> 100	> 100	> 100	> 100	–	–	–
CCCCCC(C)SC1(C(=O)OC)CC(OC(C)=O)C(NC(C)=O)C([C@H](OC(C)=O)[C@@H](COC(C)=O)OC(C)=O)O1 (some centres undefined)	> 100	> 100	> 100	> 100	> 100	64.4	> 100	> 100	> 100	–	–	–
Oc1c([Si](c2ccccc2)(c2ccccc2)c2ccccc2)cc2ccccc2c1-c1c(O)c([Si](c2ccccc2)(c2ccccc2)c2ccccc2)cc2ccccc12	> 100	> 100	> 100	> 100	> 100	> 100	> 100	> 100	> 100	–	–	–
CCCC(=O)NC(Nc1ccc(S(=O)(=O)Nc2nc(C)cc(C)n2)cc1)(C(F)(F)F)C(F)(F)F	> 100	> 100	> 100	> 100	> 100	> 100	> 100	> 100	> 100	–	–	–
O=c1[nH]nc(-c2ccccc2)n1/N=C/c1cccnc1	> 100	> 100	> 100	> 100	> 100	–	> 100	> 100	> 100	–	–	–
CCOP(=O)(OCC)C1CC(n2cc(C)c(=O)[nH]c2=O)OC1CO (centres undefined)	> 100	> 100	> 100	> 100	> 100	> 100	> 100	> 100	> 100	–	–	–
